From US11739074B2, “Ras inhibitors” (Revolution Medicines, Inc., priority 2019, dated 2023)
Where two headings read alike, the source gives them in different places.

Experiments:
AsPC-1 (K-Ras G12D) [1] = experiment: CellTiter-Glo cell viability assay, AsPC-1; format: cell-based; settings: Homo sapiens, ASPC1, 120 h
Summary of the method: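 Percent-of-DMSO luminescence values (CellTiter-Glo, day 5, plates equilibrated ~30 minutes at ambient temperature) were curve-fitted using a 4-parameter logistic equation; compounds had been added straight into wells containing the cells.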

AsPC-1 (K-Ras G12D) [2] = experiment: Potency assay: pERK in AsPC-1 cells; format: cell-based; settings: Homo sapiens
[3] = AsPC-1, K-Ras G12D, 5-day treatment, read-out: AsPC-1 Cell Viability IC50
[4] = ASPC1, AsPC-1 cells, K-Ras G12D, read-out: pERK EC50 (AsPC-1 KRAS G12D)
[5] = read-out: AsPC-1 Cell Viability IC50, AsPC-1, K-Ras G12D, 5-day treatment
[6] = ASPC1, read-out: pERK EC50 (AsPC-1 KRAS G12D)

Row | Compound | IC50 (AsPC-1 (K-Ras G12D) [1]; [3]) [µM] | EC50 (AsPC-1 (K-Ras G12D) [2]; [4]) [µM] | IC50 (AsPC-1 (K-Ras G12D) [1]; [5]) [µM] | EC50 (AsPC-1 (K-Ras G12D) [2]; [6]) [µM]
1 | CCn1c(-c2cccnc2[C@H](C)OC)c2c3cc(ccc31)-c1cc(O)cc(c1)C[C@H](NC(=O)[C@H](C(C)C)N(C)C(=O)[C@H]1CCCCN(C(=O)[C@H]3CN3)C1)C(=O)N1CCC[C@H](N1)C(=O)OCC(C)(C)C2 [Compound 247] | 1 to 10 | < 5 | – | –
2 | CCn1c(-c2cccnc2[C@H](C)OC)c2c3cc(ccc31)-c1cc(O)cc(c1)C[C@H](NC(=O)[C@H](C(C)C)N(C)C(=O)N1CC[C@H](N(C)C(=O)[C@H]3CN3)C1)C(=O)N1CCC[C@H](N1)C(=O)OCC(C)(C)C2 [Compound 254] | > 10 | < 5 | – | –
3 | CCn1c(-c2cccnc2[C@H](C)OC)c2c3cc(ccc31)-c1cc(O)cc(c1)C[C@H](NC(=O)[C@H](C(C)C)N(C)C(=O)N1CC[C@H](N(C)C(=O)[C@@H]3CN3)C1)C(=O)N1CCC[C@H](N1)C(=O)OCC(C)(C)C2 [Compound 255] | 1 to 10 | < 5 | – | –
4 | CCn1c(-c2cccnc2[C@H](C)OC)c2c3cc(ccc31)-c1cc(O)cc(c1)C[C@H](NC(=O)[C@H](C(C)C)N(C)C(=O)CN(C)C(=O)[C@@H]1CN1CCCN1CCCC1=O)C(=O)N1CCC[C@H](N1)C(=O)OCC(C)(C)C2 (some centres unmarked) [Compound 269] | – | – | 1 to 10 | < 5
5 | CCn1c(-c2cccnc2[C@H](C)OC)c2c3cc(ccc31)-c1cc(O)cc(c1)C[C@H](NC(=O)[C@H](C(C)C)N(C)C(=O)CN(C)C(=O)[C@@H]1CN1CC(=O)N(C)C)C(=O)N1CCC[C@H](N1)C(=O)OCC(C)(C)C2 (some centres unmarked) [Compound 271] | – | – | > 10 | < 5
6 | CCn1c(-c2cccnc2[C@H](C)OC)c2c3cc(ccc31)-c1cc(O)cc(c1)C[C@H](NC(=O)[C@H](C(C)C)N(C)C(=O)CN(C)C(=O)[C@H]1CN1CCCN1CCOC1=O)C(=O)N1CCC[C@H](N1)C(=O)OCC(C)(C)C2 (some centres unmarked) [Compound 272] | – | – | 1 to 10 | < 5
7 | CCn1c(-c2cccnc2[C@H](C)OC)c2c3cc(ccc31)-c1cc(O)cc(c1)C[C@H](NC(=O)[C@H](C(C)C)N(C)C(=O)CN(C)C(=O)[C@H]1CN1C1COC1)C(=O)N1CCC[C@H](N1)C(=O)OCC(C)(C)C2 (some centres unmarked) [Compound 275] | – | – | 1 to 10 | < 5
8 | CCn1c(-c2cccnc2[C@H](C)OC)c2c3cc(ccc31)-c1cc(O)cc(c1)C[C@H](NC(=O)[C@H](C(C)C)N(C)C(=O)CN(C)C(=O)[C@@H]1CN1CC1COC1)C(=O)N1CCC[C@H](N1)C(=O)OCC(C)(C)C2 (some centres unmarked) [Compound 278] | – | – | 1 to 10 | < 5
9 | CCn1c(-c2cccnc2[C@H](C)OC)c2c3cc(ccc31)-c1cc(O)cc(c1)C[C@H](NC(=O)[C@H](C(C)C)N(C)C(=O)CN(C)C(=O)[C@@H]1N[C@@H]1C1COC1)C(=O)N1CCC[C@H](N1)C(=O)OCC(C)(C)C2 [Compound 281] | – | – | 0.1 to 1 | < 5
10 | CCn1c(-c2cccnc2[C@H](C)OC)c2c3cc(ccc31)-c1cc(O)cc(c1)C[C@H](NC(=O)[C@H](C(C)C)N(C)C(=O)CN(C)C(=O)[C@H]1N[C@H]1C1COC1)C(=O)N1CCC[C@H](N1)C(=O)OCC(C)(C)C2 [Compound 282] | – | – | 1 to 10 | < 5
11 | CCn1c(-c2cccnc2[C@H](C)OC)c2c3cc(ccc31)-c1cc(O)cc(c1)C[C@H](NC(=O)[C@H](C(C)C)N(C)C(=O)CN(C)C(=O)[C@H]1N[C@@H]1C1COC1)C(=O)N1CCC[C@H](N1)C(=O)OCC(C)(C)C2 [Compound 284] | – | – | 1 to 10 | < 5
12 | CCn1c(-c2cccnc2[C@H](C)OC)c2c3cc(ccc31)-c1cc(O)cc(c1)C[C@H](NC(=O)[C@H](C(C)C)N(C)C(=O)[C@H]1C[C@@H]3N[C@@H]3C1)C(=O)N1CCC[C@H](N1)C(=O)OCC(C)(C)C2 [Compound 286] | 1 to 10 | < 5 | – | –
13 | CCn1c(-c2cccnc2[C@H](C)OC)c2c3cc(ccc31)-c1csc(n1)C[C@H](NC(=O)[C@H](C(C)C)N(C)C(=O)N(C)[C@H]1CCCN(C(=O)[C@H]3CN3)C1)C(=O)N1CCC[C@H](N1)C(=O)OCC(C)(C)C2 [Compound 295] | 1 to 10 | < 5 | – | –
14 | CCn1c(-c2cccnc2[C@H](C)OC)c2c3cc(ccc31)-c1cc(O)cc(c1)C[C@H](NC(=O)[C@H](C(C)C)N1CC[C@]3(CCN(C(=O)[C@@H]4N[C@@H]4C4CC4)C3)C1=O)C(=O)N1CCC[C@H](N1)C(=O)OCC(C)(C)C2 [Compound 305] | 0.1 to 1 | < 5 | – | –
15 | CCN1C[C@@H]1C(=O)N(C)CC(=O)N(C)[C@H](C(=O)N[C@H]1Cc2cc(O)cc(c2)-c2ccc3c(c2)c(c(-c2cccnc2[C@H](C)OC)n3CC)CC(C)(C)COC(=O)[C@@H]2CCCN(N2)C1=O)C1CCCC1 (some centres unmarked) [Compound 309] | 0.01 to 0.1 | < 5 | – | –
16 | CCn1c(-c2cccnc2[C@H](C)OC)c2c3cc(ccc31)-c1csc(n1)C[C@H](NC(=O)[C@H](C(C)C)N(C)C(=O)N(C)[C@H]1CCN(C(=O)[C@@H]3CN3)C1)C(=O)N1CCC[C@H](N1)C(=O)OCC(C)(C)C2 [Compound 310] | 1 to 10 | < 5 | – | –
